Experimental data taken from patent publication US9512425B2, “Inhibiting migration of cancer cells” (Cornell University, priority 2012, dated 2016).
Entries after “also recorded” stand apart in the source; their conditions may differ.

Experiments:
Nnat = Nnat expression in MDA-MB-436 cells overexpressing miR-708; type: cell-based, human; conditions: MDA-MB-436 cells expressing miR-708
Experimental: Total RNA was extracted using the RNeasy kit (Qiagen) and converted to cDNA using Superscript II reverse transcriptase (Invitrogen). QPCR primers for Nnat were purchased from SABiosciences (Cat #PPT11378, SABiosciences), and quantitative PCR performed using iQ™ SYBER Green master mix (Biorad, Hercule, Calif.). Each sample was run in triplicate to minimize pipetting error. A standard protocol of initial denaturation at 95° C. for 3 min, 40 cycles of 95° C. for 20 sec, 60° C. for 30 sec, and 72° C. for 30 sec, followed by final extension at 72° C. for 5 min and melt curve analysis was applied on a Biorad CFX96 Real Time System (BioRad) coupled with Bio-Rad-CFX Manager software. The relative abundance of each transcript was compared with the control.

MDA-MB-231 (MDA) = assay: Wound healing / transwell migration of MDA cells stably expressing miR-708; type: cell-based, human; conditions: MDA cells stably expressing miR-708 (lentiviral) vs controls
Excerpt: To express miRNA-708 in cells, about 500 bp of pri-miRNA containing the mature miR-708 sequence 5′-[…]-3′ (SEQ ID NO: 2) was amplified and cloned into the pZEO lentiviral construct in fusion with a GFP reporter as described (Ryu et al., 2011). miRNA sponge was generated according to (Ebert et al., 2007). Briefly, the sponge contains twelve miR-708 binding sites, 5′-[…]-3′ (SEQ ID NO: 3) which is fused with GFP and driven by an EF1α promoter. In particular, miRNA-708 was designed and cloned into the Xho I/EcoR I site of the lentiviral vector. To express miRNA-708 inducibly in cells, a doxycycline inducible construct was generated. […]
Cells were plated in triplicate into 6-well plates (5×10^5 cell/well) and cultured in DMEM containing 10% FBS. […] Cell migration was photographed and measured under phase-contrast microscopy. To measure cell migration after depletion of intracellular calcium, a scratch was made and the wound healing was monitored for 48 hr in the presence of 20 μM of BAPTA-AM (Invitrogen). The percentage of wound healed area was measured as a ratio of occupied area to the total area using Image J program (NIH).
For transwell assays, 10,000 cells were plated in triplicate on 8 micron inserts in 24 well plates containing DMEM. […] After staining, images were obtained using a computerized Zeiss microscope (Axiovert 200M) and analyzed using Axiovision 4.6 software (Carl Zeiss Inc.).

MDA-LM2 (LM2) = assay: Orthotopic MDA-LM2 tumor / pulmonary metastasis model; type: in vivo, mice
Experimental: For orthotopic injection, 1×10^6 viable MDA-MB-231, MDA-Cont, or MDA-miR-708 cells were injected into CB-17 SCID mice fat pads in a volume of 0.1 ml. Tumor growth and pulmonary metastases (following resection of primary tumor) were monitored by live animal bioluminescent imaging (Xenogen IVIS system) once per week.
Mice inoculated with firefly luciferase were anaesthetized and injected retro-orbitally with 75 mg/kg of D-luciferin (30 mg/mL in PBS). Images were taken with mice in a supine position using the Xenogen IVIS system coupled to Living Image acquisition and analysis software (Xenogen). For bioluminescence (BLI) plots, photon flux was calculated for each mouse by using a rectangular region of interest encompassing the thorax of the mouse.
Paraffin embedded sections (5 μm) were deparaffinized following standard protocols. […] Images were obtained with an Axiovert 40 CFL microscope coupled with Axioversion 4.8.2 software (Carl Zeiss). For nodule counting, lungs were perfused, isolated and OCT embedded and sectioned for immunohistochemical analysis. Cryosections (8 μm) were mounted on glass slides and stained with hematoxylin and eosin (H&E).
To measure number of CTC in blood, 100 μl of peripheral blood was collected from mice bearing orthotopic […] expressing MDA and MDA-mir-708 breast tumors. Total RNA was isolated and subjected to Taqman Q-PCR for GFP transgene. To convert quantitative-PCR data into number of CTCs, a standard curve was generated by serially diluting GFP+MDA tumor spiked into […] of normal wild type mouse blood.

miR-708: microRNA, mature sequence 5'-AAGGAGCUUACAAUCUAGCUGGG-3' (SEQ ID NO: 2); expressed from lentiviral vector or used as synthetic precursor
Nnat levels (Nnat): decreased levels of Nnat
migration rates (MDA-MB-231 (MDA)): suppressed migration rates
primary tumor growth (MDA-LM2 (LM2); LM2 cells over-expressing miR-708, day 60): remained unperturbed
lung metastases (photon flux) (MDA-LM2 (LM2); LM2 cells over-expressing miR-708, day 67): significantly lower photon flux; also recorded: pronounced reduction
number of lung metastatic nodules (MDA-LM2 (LM2); MDA-LM2-miR-708 vs controls, H&E sections): reduced numbers
number of circulating tumor cells (CTCs) (MDA-LM2 (LM2); peripheral blood of MDA-LM2-miR-708 tumor bearing mice vs controls): reduced number
primary tumor size measurements (MDA-LM2 (LM2); weight over time, FIG. 7H): unaffected
